Ten compounds from US6762207B1, “(E)-styryl sulfone anticancer agents” (priority 1999, dated 2004) can be followed below.

Holding throughout (assay type): cell-based
Common to all, as to set-up: dose or concentration left out as unconfirmed
Holding throughout (details): 96 hours

For test [1], the system named is breast tumor cell line MCF-7. As to the kind of experiment: Trypan blue exclusion viability assay, MCF-7. As for the experimental part:
(§1) MCF-7 is estrogen-responsive, while BT-20 is an estrogen-unresponsive cell line. NIH/3T3 and HFL are normal murine and human fibroblasts, respectively. MCF-7, BT-20, DLD-1 and H157 were grown in Dulbecco's modified Eagle's medium (DMEM) containing 10% fetal bovine serum supplemented with penicillin and streptomycin. DU145 was cultured in RPMI with 10% fetal bovine serum containing penicillin and streptomycin. […] All cell cultures were maintained at 37° C. in a humidified atmosphere of 5% CO2. Cells were treated with test compound at 2.5 mM concentration and cell viability was determined after 96 hours by the Trypan blue exclusion method.

The subject of test [2] is prostate tumor cell line DU-145. The experiment in a line: Trypan blue exclusion viability assay, DU145. As for the experimental part: as §1
Test [3] deals with non-small cell lung carcinoma cell line H157. The experiment in a line: Trypan blue exclusion viability assay, H157. As for the experimental part:
as §1

For test [4], the system named is breast tumor cell line BT-20. The experiment in a line: Trypan blue exclusion viability assay, BT20. As for the experimental part: as §1
The subject of test [5] is colorectal carcinoma cell line DLD-1. As to the kind of experiment: Trypan blue exclusion viability assay, DLD-1. As for the experimental part:
as §1

In the case of `O=S(=O)(/C=C/c1ccc(F)cc1)Cc1ccc(Cl)cc1Cl` [Example 4, (E)-4-Fluorostyryl-2,4-dichlorobenzylsulfone], the “Cell death, MCF-7” value in test [1] was “++ (10-15% = ++)”. Also, in test [2], the “Cell death, DU145” value is given as “++ (10-15% = ++)”. Moreover, in test [3], the “Cell death, H157” value was “+ (5-10%: = +)”. Besides, the “Cell death, BT20” value in test [4] was “++ (10-15% = ++)”.

As for `O=S(=O)(/C=C/c1ccc(F)cc1)Cc1ccc(Cl)c(Cl)c1` [Example 6, (E)-4-Fluorostyryl-3,4-dichlorobenzylsulfone], the “Cell death, MCF-7” value in test [1] is “++++ (50-60% = ++++)”. Besides, the “Cell death, DU145” value in test [2] is recorded as “++++ (50-60% = ++++)”. Besides, the “Cell death, BT20” value in test [4] is recorded as “++++ (50-60% = ++++)”.

For the compound `O=S(=O)(/C=C/c1ccc(F)cc1)Cc1ccc(C(F)(F)F)cc1` [Example 1, (E)-4-Fluorostyryl-4-trifluoromethylbenzylsulfone], the “Cell death, MCF-7” value in test [1] was “+++ (40-50% = +++)”. Further, the “Cell death, DU145” value in test [2] was “+++ (40-50% = +++)”. Besides, the “Cell death, DLD-1” value in test [5] was “+++ (40-50% = +++)”. The “Cell death, H157” value in test [3] is given as “++ (10-15% = ++)”. Besides, the “Cell death, BT20” value in test [4] is “+++ (40-50% = +++)”.

As for `O=S(=O)(/C=C/c1ccc(F)c(F)c1)Cc1ccc(Cl)cc1` [Example 13, (E)-3,4-Difluorostyryl-4-chlorobenzylsulfone], the “Cell death, MCF-7” value in test [1] is “− (0% = −)”. For the same compound, in test [2], the “Cell death, DU145” value is listed as “− (0% = −)”. The “Cell death, DLD-1” value in test [5] is listed as “− (0% = −)”. For the same compound, the “Cell death, H157” value in test [3] is reported as “− (0% = −)”.

In the case of `N#Cc1ccc(CS(=O)(=O)/C=C/c2ccc(Br)cc2)cc1` [Example 12, (E)-4-Bromostyryl-4-cyanobenzylsulfone], in test [1], the “Cell death, MCF-7” value is “− (0% = −)”. Besides, the “Cell death, DU145” value in test [2] is listed as “− (0% = −)”. Further, in test [5], the “Cell death, DLD-1” value is reported as “− (0% = −)”. In addition, the “Cell death, H157” value in test [3] was “+ (5-10%: = +)”.

On to `O=[N+]([O-])c1ccc(CS(=O)(=O)/C=C/c2ccc(F)cc2)cc1` [Example 9, (E)-4-Fluorostyryl-4-nitrobenzylsulfone], for which, in test [1], the “Cell death, MCF-7” value is recorded as “++ (10-15% = ++)”. Also, the “Cell death, DU145” value in test [2] is recorded as “++ (10-15% = ++)”. For the same compound, the “Cell death, DLD-1” value in test [5] is “− (0% = −)”. Moreover, the “Cell death, H157” value in test [3] was “++ (10-15% = ++)”. In addition, in test [4], the “Cell death, BT20” value is given as “++ (10-15% = ++)”.

`O=S(=O)(/C=C/c1ccc(Cl)cc1)Cc1ccc(Cl)cc1Cl` [Example 5, (E)-4-Chlorostyryl-2,4-dichlorobenzylsulfone]: the “Cell death, MCF-7” value in test [1] is given as “+++ (40-50% = +++)”. Moreover, the “Cell death, DU145” value in test [2] is recorded as “+ (5-10%: = +)”. The “Cell death, DLD-1” value in test [5] is reported as “++ (10-15% = ++)”. In addition, in test [3], the “Cell death, H157” value is listed as “++ (10-15% = ++)”.

Regarding `O=S(=O)(/C=C/c1ccc(F)cc1Cl)Cc1ccc(Cl)cc1` [Example 15, (E)-2-Chloro-4-fluorostyryl-4-chlorobenzylsulfone], the “Cell death, MCF-7” value in test [1] is reported as “+++++ (Above 80% = +++++)”. Also, the “Cell death, DU145” value in test [2] was “+++++ (Above 80% = +++++)”. For the same compound, the “Cell death, DLD-1” value in test [5] is given as “+++++ (Above 80% = +++++)”. Besides, the “Cell death, H157” value in test [3] was “+++++ (Above 80% = +++++)”.

For the compound `O=S(=O)(/C=C/c1ccc(F)c(Cl)c1)Cc1ccc(Cl)cc1` [Example 14, (E)-3-Chloro-4-fluorostyryl-4-chlorobenzylsulfone], in test [1], the “Cell death, MCF-7” value was “− (0% = −)”. In test [2], the “Cell death, DU145” value was “− (0% = −)”. The “Cell death, DLD-1” value in test [5] is recorded as “− (0% = −)”. Moreover, the “Cell death, H157” value in test [3] was “− (0% = −)”.

Regarding `O=S(=O)(/C=C/c1ccc(Cl)cc1)Cc1ccc(C(F)(F)F)cc1` [Example 2, (E)-4-Chlorostyryl-4-trifluoromethylbenzylsulfone], the “Cell death, MCF-7” value in test [1] is reported as “++ (10-15% = ++)”. Besides, the “Cell death, DU145” value in test [2] is “++ (10-15% = ++)”. The “Cell death, DLD-1” value in test [5] is on record as “++ (10-15% = ++)”. Also, the “Cell death, BT20” value in test [4] is on record as “++ (10-15% = ++)”.
